Source: ChEMBL document CHEMBL4811315, “Design, synthesis and biochemical evaluation of novel carbonic anhydrase inhibitors triggered by structural knowledge on hCA VII” (Bioorg Med Chem, 2021)

These compounds were tested against Carbonic anhydrase 9 (Homo sapiens, UniProt Q16790).
Description: Inhibition of full length human CA9 incubated for 15 mins by phenol red dye based stopped flow CO2 hydration assay

Structure (SMILES)	Ki
NS(=O)(=O)c1ccc(C(=O)N2CCN(C(=O)c3ccc(Cl)s3)CC2)cc1	382 nM
Cc1ccsc1C(=O)N1CCN(C(=O)c2ccc(S(N)(=O)=O)cc2)CC1	2920 nM
NS(=O)(=O)c1ccc(C(=O)N2CCN(C(=O)c3ccc([N+](=O)[O-])o3)CC2)cc1	976 nM
NS(=O)(=O)c1ccc(C(=O)N2CCN(C(=O)c3sccc3Br)CC2)cc1	125 nM
Cc1ccoc1C(=O)N1CCN(C(=O)c2ccc(S(N)(=O)=O)cc2)CC1	3050 nM
NS(=O)(=O)c1ccc(C(=O)N2CCN(C(=O)c3ccc([N+](=O)[O-])s3)CC2)cc1	171 nM

The remaining lines, values ahead:

Ki	Structure (SMILES)
9.2 nM	NS(=O)(=O)c1ccc(C(=O)N2CCN(C(=O)c3cc4ccccc4[nH]3)CC2)cc1
97.9 nM	NS(=O)(=O)c1ccc(C(=O)N2CCN(C(=O)c3cc4ccccc4s3)CC2)cc1
3280 nM	NS(=O)(=O)c1ccc(C(=O)N2CCN(C(=O)c3cccs3)CC2)cc1
277 nM	NS(=O)(=O)c1ccc(C(=O)N2CCN(C(=O)c3ccc[nH]3)CC2)cc1
2990 nM	NS(=O)(=O)c1ccc(C(=O)N2CCN(C(=O)c3ccc4ccccc4c3)CC2)cc1
2940 nM	NS(=O)(=O)c1ccc(C(=O)N2CCN(C(=O)c3cc4ccccc4o3)CC2)cc1
3170 nM	NS(=O)(=O)c1ccc(C(=O)N2CCN(C(=O)c3ccco3)CC2)cc1
